From patent publication US8192962B2, “Processes for detecting toxic substances” (Daikin Industries, Ltd., priority 2001, dated 2012)

Tested on: Detoxification protein genes
Test: DNA chip mRNA expression in yeast, detoxification protein genes (Table 8)
Type: cell-based, Saccharomyces cerevisiae S288C
Summary of the method: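 Value is the scanned fluorescence intensity ratio of exposed versus chemical-free cells. Log-phase S288C yeast in YPD at 25° C. received one toxic substance for two hours, dosed to slow growth without killing; Cy3/Cy5-labeled cDNA from oligo-dT-purified mRNA was hybridized to a whole-genome chip at 65° C.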

With `[Cl][Hg][Cl]` [(3), HgCl2] the “The level of expressed mRNA in the presence of chemical substance/The level of expressed mRNA in the absence of chemical substance” value (yeast gene YBL064C) was 3.9, the “The level of expressed mRNA in the presence of chemical substance/The level of expressed mRNA in the absence of chemical substance” value (yeast gene YBR008C) was 4.9 and the “The level of expressed mRNA in the presence of chemical substance/The level of expressed mRNA in the absence of chemical substance” value (yeast gene YBR145W) was 2.8. For the same compound, the “The level of expressed mRNA in the presence of chemical substance/The level of expressed mRNA in the absence of chemical substance” value (yeast gene YBR244W) was 2.0, the “The level of expressed mRNA in the presence of chemical substance/The level of expressed mRNA in the absence of chemical substance” value (yeast gene YBR293W) was 1.0 and the “The level of expressed mRNA in the presence of chemical substance/The level of expressed mRNA in the absence of chemical substance” value (yeast gene YCL035C) was 1.5. The “The level of expressed mRNA in the presence of chemical substance/The level of expressed mRNA in the absence of chemical substance” value (yeast gene YCL069W) was 0.9, the “The level of expressed mRNA in the presence of chemical substance/The level of expressed mRNA in the absence of chemical substance” value (yeast gene YCR083W) was 1.5 and the “The level of expressed mRNA in the presence of chemical substance/The level of expressed mRNA in the absence of chemical substance” value (yeast gene YDL100C) was 1.1. For the same compound, the “The level of expressed mRNA in the presence of chemical substance/The level of expressed mRNA in the absence of chemical substance” value (yeast gene YDL168W) was 2.1, the “The level of expressed mRNA in the presence of chemical substance/The level of expressed mRNA in the absence of chemical substance” value (yeast gene YDR256C) was 0.7 and the “The level of expressed mRNA in the presence of chemical substance/The level of expressed mRNA in the absence of chemical substance” value (yeast gene YDR453C) was 4.4. For the same compound, the “The level of expressed mRNA in the presence of chemical substance/The level of expressed mRNA in the absence of chemical substance” value (yeast gene YDR513W) was 2.3, the “The level of expressed mRNA in the presence of chemical substance/The level of expressed mRNA in the absence of chemical substance” value (yeast gene YDR538W) was 2.4 and the “The level of expressed mRNA in the presence of chemical substance/The level of expressed mRNA in the absence of chemical substance” value (yeast gene YEL027W) was 3.4. For the same compound, the “The level of expressed mRNA in the presence of chemical substance/The level of expressed mRNA in the absence of chemical substance” value (yeast gene YEL065W) was 1.2, the “The level of expressed mRNA in the presence of chemical substance/The level of expressed mRNA in the absence of chemical substance” value (yeast gene YER185W) was 2.1 and the “The level of expressed mRNA in the presence of chemical substance/The level of expressed mRNA in the absence of chemical substance” value (yeast gene YFL050C) was 1.1. The “The level of expressed mRNA in the presence of chemical substance/The level of expressed mRNA in the absence of chemical substance” value (yeast gene YGL013C) was 0.8, the “The level of expressed mRNA in the presence of chemical substance/The level of expressed mRNA in the absence of chemical substance” value (yeast gene YGL254W) was 0.8 and the “The level of expressed mRNA in the presence of chemical substance/The level of expressed mRNA in the absence of chemical substance” value (yeast gene YGR088W) was 7.7. For the same compound, the “The level of expressed mRNA in the presence of chemical substance/The level of expressed mRNA in the absence of chemical substance” value (yeast gene YGR138C) was 1.0, the “The level of expressed mRNA in the presence of chemical substance/The level of expressed mRNA in the absence of chemical substance” value (yeast gene YGR197C) was 2.5 and the “The level of expressed mRNA in the presence of chemical substance/The level of expressed mRNA in the absence of chemical substance” value (yeast gene YGR209C) was 3.5. For the same compound, the “The level of expressed mRNA in the presence of chemical substance/The level of expressed mRNA in the absence of chemical substance” value (yeast gene YGR224W) was 1.2, the “The level of expressed mRNA in the presence of chemical substance/The level of expressed mRNA in the absence of chemical substance” value (yeast gene YHL040C) was 1.5 and the “The level of expressed mRNA in the presence of chemical substance/The level of expressed mRNA in the absence of chemical substance” value (yeast gene YHL047C) was 1.0. For the same compound, the “The level of expressed mRNA in the presence of chemical substance/The level of expressed mRNA in the absence of chemical substance” value (yeast gene YHR008C) was 4.8, the “The level of expressed mRNA in the presence of chemical substance/The level of expressed mRNA in the absence of chemical substance” value (yeast gene YHR048W) was 1.4 and the “The level of expressed mRNA in the presence of chemical substance/The level of expressed mRNA in the absence of chemical substance” value (yeast gene YHR053C) was 0.7. The “The level of expressed mRNA in the presence of chemical substance/The level of expressed mRNA in the absence of chemical substance” value (yeast gene YHR055C) was 0.8, the “The level of expressed mRNA in the presence of chemical substance/The level of expressed mRNA in the absence of chemical substance” value (yeast gene YIR002C) was 0.5 and the “The level of expressed mRNA in the presence of chemical substance/The level of expressed mRNA in the absence of chemical substance” value (yeast gene YIR038C) was 4.6. The “The level of expressed mRNA in the presence of chemical substance/The level of expressed mRNA in the absence of chemical substance” value (yeast gene YJL101C) was 2.1, the “The level of expressed mRNA in the presence of chemical substance/The level of expressed mRNA in the absence of chemical substance” value (yeast gene YJR104C) was 2.9 and the “The level of expressed mRNA in the presence of chemical substance/The level of expressed mRNA in the absence of chemical substance” value (yeast gene YKL026C) was 1.2. For the same compound, the “The level of expressed mRNA in the presence of chemical substance/The level of expressed mRNA in the absence of chemical substance” value (yeast gene YKL064W) was 0.4, the “The level of expressed mRNA in the presence of chemical substance/The level of expressed mRNA in the absence of chemical substance” value (yeast gene YKR066C) was 5.5 and the “The level of expressed mRNA in the presence of chemical substance/The level of expressed mRNA in the absence of chemical substance” value (yeast gene YKR105C) was 0.9. The “The level of expressed mRNA in the presence of chemical substance/The level of expressed mRNA in the absence of chemical substance” value (yeast gene YKR106W) was 2.1, the “The level of expressed mRNA in the presence of chemical substance/The level of expressed mRNA in the absence of chemical substance” value (yeast gene YLL028W) was 4.6 and the “The level of expressed mRNA in the presence of chemical substance/The level of expressed mRNA in the absence of chemical substance” value (yeast gene YLL057C) was 1.8. The “The level of expressed mRNA in the presence of chemical substance/The level of expressed mRNA in the absence of chemical substance” value (yeast gene YLL060C) was 2.3, the “The level of expressed mRNA in the presence of chemical substance/The level of expressed mRNA in the absence of chemical substance” value (yeast gene YLR043C) was 2.0 and the “The level of expressed mRNA in the presence of chemical substance/The level of expressed mRNA in the absence of chemical substance” value (yeast gene YLR046C) was 0.9. For the same compound, the “The level of expressed mRNA in the presence of chemical substance/The level of expressed mRNA in the absence of chemical substance” value (yeast gene YML028W) was 4.4, the “The level of expressed mRNA in the presence of chemical substance/The level of expressed mRNA in the absence of chemical substance” value (yeast gene YML116W) was 1.5 and the “The level of expressed mRNA in the presence of chemical substance/The level of expressed mRNA in the absence of chemical substance” value (yeast gene YMR015C) was 1.9. For the same compound, the “The level of expressed mRNA in the presence of chemical substance/The level of expressed mRNA in the absence of chemical substance” value (yeast gene YMR038C) was 1.8, the “The level of expressed mRNA in the presence of chemical substance/The level of expressed mRNA in the absence of chemical substance” value (yeast gene YNL239W) was 2.4 and the “The level of expressed mRNA in the presence of chemical substance/The level of expressed mRNA in the absence of chemical substance” value (yeast gene YNL241C) was 4.3. For the same compound, the “The level of expressed mRNA in the presence of chemical substance/The level of expressed mRNA in the absence of chemical substance” value (yeast gene YNL259C) was 1.1, the “The level of expressed mRNA in the presence of chemical substance/The level of expressed mRNA in the absence of chemical substance” value (yeast gene YOL158C) was 2.4 and the “The level of expressed mRNA in the presence of chemical substance/The level of expressed mRNA in the absence of chemical substance” value (yeast gene YOR031W) was 1.3. The “The level of expressed mRNA in the presence of chemical substance/The level of expressed mRNA in the absence of chemical substance” value (yeast gene YOR153W) was 5.1, the “The level of expressed mRNA in the presence of chemical substance/The level of expressed mRNA in the absence of chemical substance” value (yeast gene YOR247W) was 3.6 and the “The level of expressed mRNA in the presence of chemical substance/The level of expressed mRNA in the absence of chemical substance” value (yeast gene YOR251C) was 1.3. For the same compound, the “The level of expressed mRNA in the presence of chemical substance/The level of expressed mRNA in the absence of chemical substance” value (yeast gene YOR273C) was 1.7, the “The level of expressed mRNA in the presence of chemical substance/The level of expressed mRNA in the absence of chemical substance” value (yeast gene YPL163C) was 1.4 and the “The level of expressed mRNA in the presence of chemical substance/The level of expressed mRNA in the absence of chemical substance” value (yeast gene YPR200C) was 0.8.
